In ChEMBL document CHEMBL1201862, “PubChem BioAssay data set” (2004):
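Exposure lasted 48 hours, with cells grown in 96-well plates and compounds tested at five concentrations. At the GI50, growth is halved.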 Activity calls are given as the source filed them. Cut-off read from the data, not from the text of the source: active = GI50 up to about 1.1 µM and inactive = higher.

Assays:
Assay in all cases: DTP human tumour cell line panel, 48 h
ACHN = tested on: ACHN
CAKI-1 = tested on: CAKI-1
COLO 205 = tested on: COLO 205
HCT-116 = tested on: HCT-116
HOP-92 = tested on: HOP-92
KM12 = tested on: KM12
LOX IMVI = tested on: LOX IMVI
Malme-3M = tested on: Malme-3M
NCI-H226 = tested on: NCI-H226
RXF 393 = tested on: RXF 393
SF-268 = tested on: SF-268
SK-MEL-5 = tested on: SK-MEL-5
SNB-75 = tested on: SNB-75
SR = tested on: SR
UACC-257 = tested on: UACC-257
UACC-62 = tested on: UACC-62
HCC 2998 = tested on: HCC 2998

Structure (SMILES)	GI50 (ACHN)	GI50 (CAKI-1)	GI50 (COLO 205)	GI50 (HCT-116)	GI50 (HOP-92)	GI50 (KM12)	GI50 (LOX IMVI)	GI50 (Malme-3M)	GI50 (NCI-H226)	GI50 (RXF 393)	GI50 (SF-268)	GI50 (SK-MEL-5)	GI50 (SNB-75)	GI50 (SR)	GI50 (UACC-257)	GI50 (UACC-62)	GI50 (HCC 2998)
O=C1c2ccccc2C2C1N2C(=O)C(F)(F)F (stereo unspecified)	> 100 µM (inactive)	> 100 µM (inactive)	> 100 µM (inactive)	> 100 µM (inactive)	> 100 µM (inactive)	> 100 µM (inactive)	49 µM (inactive)	> 100 µM (inactive)	> 100 µM (inactive)	> 100 µM (inactive)	> 100 µM (inactive)	> 100 µM (inactive)	> 100 µM (inactive)	26.9 µM (inactive)	> 100 µM (inactive)	> 100 µM (inactive)	
COC(=O)CC1NC(=O)C1C(C)(OC)OC (stereo unspecified)	> 100 µM (inactive)		> 100 µM (inactive)	> 100 µM (inactive)			> 100 µM (inactive)	> 100 µM (inactive)	> 100 µM (inactive)	> 100 µM (inactive)	> 100 µM (inactive)	> 100 µM (inactive)	30.3 µM (inactive)	> 100 µM (inactive)	> 100 µM (inactive)	> 100 µM (inactive)	> 100 µM (inactive)
Cc1ccc(S(=O)(=O)OCCn2cnc3nc(NC(=O)c4ccccc4)[nH]c(=O)c32)cc1	> 100 µM (inactive)	> 100 µM (inactive)	> 100 µM (inactive)	> 100 µM (inactive)	> 100 µM (inactive)	> 100 µM (inactive)	> 100 µM (inactive)	> 100 µM (inactive)	> 100 µM (inactive)	> 100 µM (inactive)	> 100 µM (inactive)	> 100 µM (inactive)	> 100 µM (inactive)	> 100 µM (inactive)	> 100 µM (inactive)	> 100 µM (inactive)	
CC(=O)O/N=C/c1ncccc1OC(C)=O	> 100 µM (inactive)	> 100 µM (inactive)	> 100 µM (inactive)	> 100 µM (inactive)	> 100 µM (inactive)	> 100 µM (inactive)	> 100 µM (inactive)	> 100 µM (inactive)	> 100 µM (inactive)	> 100 µM (inactive)	> 100 µM (inactive)	> 100 µM (inactive)	> 100 µM (inactive)	> 100 µM (inactive)	> 100 µM (inactive)	> 100 µM (inactive)	
COC1OC2COC(c3ccccc3)OC2C(O)C1Br (stereo unspecified)	> 100 µM (inactive)	> 100 µM (inactive)	> 100 µM (inactive)	> 100 µM (inactive)	> 100 µM (inactive)	> 100 µM (inactive)	> 100 µM (inactive)	> 100 µM (inactive)		> 100 µM (inactive)	> 100 µM (inactive)	> 100 µM (inactive)		> 100 µM (inactive)	> 100 µM (inactive)	> 100 µM (inactive)	> 100 µM (inactive)
O=C1c2ccccc2C(=O)N1C/C=C/CO	> 100 µM (inactive)	> 100 µM (inactive)	> 100 µM (inactive)	> 100 µM (inactive)		> 100 µM (inactive)		> 100 µM (inactive)	> 100 µM (inactive)	> 100 µM (inactive)	> 100 µM (inactive)	> 100 µM (inactive)	> 100 µM (inactive)	> 100 µM (inactive)	> 100 µM (inactive)	> 100 µM (inactive)	> 100 µM (inactive)
CN1N=C2c3ccccc3CC[C@H]2C1c1cccc(O)c1 (stereo partly specified)	> 100 µM (inactive)		> 100 µM (inactive)	3.05 µM (inactive)	> 100 µM (inactive)	> 100 µM (inactive)	> 100 µM (inactive)	0.463 µM (active)	> 100 µM (inactive)	77.4 µM (inactive)	> 100 µM (inactive)			> 100 µM (inactive)	> 100 µM (inactive)	> 100 µM (inactive)	> 100 µM (inactive)
